# Source: US5200393A, “Lipid excipient for nasal delivery and topical application” (The Liposome Company, Inc., priority 1991, dated 1993)
# Assays:
# [1] = Nasal delivery of calcitonin in MOPE excipient to rats, serum calcium; assay type: in vivo, rat; details: MOPE used as the excipient delivery vehicle; FIG. 1; change in serum calcium after one and three hours
# Description: Eight Wistar Kyoto male rats, weighing 250-300 g were anesthetized with a 20% solution of urethane administered in a divided dose of 1/6 g/kg, administered intraperitoneally (IP).
# The rats were surgically prepared for nasal sample instillation according to the Harai method (Hussain et al., 19800, J. Pharm. Sci., 69(12):1411-1413. A pre-drug blood sample was taken from each rat (1.0 ml drawn from retroorbital site) and allowed to clot, and the serum separated by standard technique.
# The calcitonin-MOPE solution (single 50 uL doses per rate) were administered by inserting a syringe containing the sample into the rats nostril, and injecting. A blood sample was obtained from each rat after one and three hours, and assayed for serum calcium.
# Serum calcium was determined colorimetrically by the Sigma Diagnostics Calcium Kit No. 587 (Sigma, St. Louis, Mo.). The change in serum calcium levels compared to pre-drug controls was plotted as a function of time. (FIG. 1)
# [2] = Nasal delivery of insulin in MOPE excipient to diabetic rats, serum insulin radioimmunoassay; assay type: in vivo, rat
# Description: The insulin-MOPE solution of Example 4 was instilled into the nasal cavity of rats according to the methods of Example 3. Right Sprague-Dawley male 300 g rats which had been made diabetic according to the methods of Weiner et al., 1985, J. Pharm. Sci., 74:922-925 were used. Blood samples were collected after one hour and serum separated according to standard methods as in Example 3. The serum was analyzed for insulin using the Coat-A-CountInsulin ^125 I radioimmunoassay (Diagnostic Products Corp., Los Angeles, Calif.).
# MOPE (80.0 mg) in chloroform was dried down to a lipid film on a round bottom flask at 37° C. in a water bath. The film was resuspended in 10.0 ml of distilled water which had been pH adjusted to pH 9.0 with about 20-50 uL of 0.1N sodium hydroxide (NaOH). Four mg of porcine insulin powder (Eli Lilly, Indianapolis, Ind.) supplied as 25 U/mg, was admixed with the MOPE solution and vortically mixed, creating a 0.8% MOPE insulin gel. The resulting gel was administered to diabetic rats according to the methods of Example 5. […] The methods of the above Example were repeated, dilutions were made to result in 10 ml of each of 0.4%, 0.2%, and 0.1% MOPE, 4.0 mg of insulin being admixed with these MOPE samples as well, the complete results from serum insulin concentrations of each sample plotted together in FIG. 2. […]
smiles,measurement,setting,value
"CCCCCCCC/C=C\CCCCCCCC(=O)OC[C@@H](O)COP(=O)(O)OCCN [MOPE, 1-oleoyl lysophosphatidylethanolamine]",enhancement of calcitonin through the nasal mucosa,[1],enhancement
same,lipid concentration at which enhanced drug absorption of insulin occurs,"[2]; excipient at about pH 7.0, cloudy fluid",about 0.8%
same,MOPE concentration that has most efficacy for penetration enhancement of insulin,"[2]; pH 9.0, in distilled water",0.2%
